The record followed here is ChEMBL document CHEMBL3608270, “Advances in tetrahydropyrido[1,2-a]isoindolone (valmerins) series: Potent glycogen synthase kinase 3 and cyclin dependent kinase 5 inhibitors” (Eur J Med Chem, 2015).

The nature of test [1]: Selectivity index, ratio of IC50 for human recombinant CDK5/p25 to porcine brain GSK3alpha/beta.
The target of test [2] is Glycogen synthase kinase-3 (Sus scrofa, UniProt B2LUN4+I6LNT8). The test can be described thus: Inhibition of porcine brain GSK3alpha/beta using GS-1 substrate and ATP.
Test [3] deals with Cyclin-dependent kinase 5/CDK5 activator 1 (Homo sapiens, UniProt Q00535). The test can be described thus: Inhibition of human recombinant CDK5/p25 using histone H1 substrate and ATP. It is filed as protein-complex assay.
Test [4] deals with HCT-116. The test can be described thus: cells. The conditions noted are these: Homo sapiens, HCT-116, 48 h.
The subject of test [5] is MDA-MB-231. The test can be described thus: cells. The conditions noted are these: Homo sapiens, MDA-MB-231, 48 h.
The subject of test [6] is NCI-H727. The test can be described thus: cells. To be noted: Homo sapiens, NCI-H727, 48 h.
A short description of test [7]: cells. The conditions noted are these: Homo sapiens, Huh-7, 48 h.
Test [8] concerns PC-3. The test can be described thus: cells. The conditions noted are these: Homo sapiens, PC-3, 48 h.
The subject of test [9] is Caco-2. The test can be described thus: cells. The conditions noted are these: Homo sapiens, Caco-2, 48 h.
The test system of test [10] is PC-3.
The test system of test [11] is MDA-MB-231.
The test system of test [12] is NCI-H727.
The subject of test [13] is Caco-2.
In test [14] the test system is HCT-116.
The target of test [15] is Dual specificity tyrosine-phosphorylation-regulated kinase 1A (Homo sapiens, UniProt Q13627). The test can be described thus: Inhibition of human recombinant GST-tagged DYRK1A expressed in Escherichia coli.

Chain of Cyclin-dependent kinase 5/CDK5 activator 1 (Q00535 whole entry): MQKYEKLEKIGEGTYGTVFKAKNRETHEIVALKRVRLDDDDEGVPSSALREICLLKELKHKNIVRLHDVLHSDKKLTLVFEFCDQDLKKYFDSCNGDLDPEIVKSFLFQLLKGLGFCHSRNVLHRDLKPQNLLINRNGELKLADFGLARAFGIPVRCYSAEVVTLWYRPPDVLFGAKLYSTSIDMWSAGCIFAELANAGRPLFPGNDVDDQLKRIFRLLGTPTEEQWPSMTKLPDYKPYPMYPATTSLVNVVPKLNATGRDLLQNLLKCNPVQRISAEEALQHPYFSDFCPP
Chain of Cyclin-dependent kinase 5/CDK5 activator 1 (Q15078 whole entry, further chain): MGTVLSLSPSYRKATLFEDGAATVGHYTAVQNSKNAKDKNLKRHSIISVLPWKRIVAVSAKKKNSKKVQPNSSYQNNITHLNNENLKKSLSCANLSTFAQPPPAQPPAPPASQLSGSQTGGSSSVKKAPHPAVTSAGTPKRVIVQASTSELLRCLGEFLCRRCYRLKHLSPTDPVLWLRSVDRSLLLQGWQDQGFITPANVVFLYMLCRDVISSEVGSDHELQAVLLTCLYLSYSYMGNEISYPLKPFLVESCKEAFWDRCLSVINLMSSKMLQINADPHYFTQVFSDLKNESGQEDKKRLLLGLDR

A word on the IC50: it is the concentration needed to halve the response being measured. Turning to `O=C(Nc1ccccn1)Nc1cccc2c1C1CC3(CCN1C2=O)SCCS3` (configuration not stated), the Ratio IC50 in test [1] is 7.2. The same molecule registered an IC50 in test [2] of 33 nM.

For `O=C1CCN2C(=O)c3cccc(NC(=O)Nc4ccccn4)c3C2C1` (configuration not stated), the IC50 came to 1600 nM in test [3] and 230 nM in [2].

In the case of `O=C(Nc1ccccn1)Nc1cccc2c1[C@@H]1C[C@H](O)CCN1C2=O`, the IC50 in [3] was found to be 2100 nM.

In the case of `O=C(Nc1cnccn1)Nc1cccc2c1C1CC3(CCN1C2=O)SCCS3` (configuration not stated), the IC50 was determined as 100 nM in test [4]; 150 nM in [5]; 400 nM in test [6]; 100 nM in [7]; 600 nM in test [8]; 44 nM in test [2]. Further, the IC50 in test [9] is 500 nM.

As for `O=C1CCN2C(=O)c3cccc(NC(=O)Nc4cnccn4)c3C2C1` (configuration not stated), the figures for the concentration for half-maximal inhibition (IC50) in test [3] and in test [2] were 3600 nM and 1200 nM, respectively.

Consider `Cc1cccc(NC(=O)Nc2cccc3c2C2CC4(CCN2C3=O)OCCO4)n1` (configuration not stated), for which the Ratio IC50 in test [1] was greater than 10. This molecule also showed an IC50 in test [2] of 920 nM.

In the case of `Cc1cccc(NC(=O)Nc2cccc3c2C2CC4(CCN2C3=O)SCCS4)n1` (configuration not stated), the Ratio IC50 in test [1] was greater than 5. In addition, the IC50 in test [2] turned out to be 2000 nM.

For the molecule `Cc1cccc(NC(=O)Nc2cccc3c2[C@@H]2C[C@H](O)CCN2C3=O)n1`, the IC50 result was “Not Active” in test [10]; “Not Active” in [11]; 1000 nM in test [3]; “Not Active” in test [12]; “Not Active” in test [13]; “Not Active” in test [14].

In the case of `COc1cc(NC(=O)Nc2cccc3c2C2CC4(CCN2C3=O)OCCO4)nc2ccccc12` (configuration not stated), the Ratio IC50 in test [1] was greater than 10. In addition, the IC50 in [2] came to 1000 nM.

For `COc1cc(NC(=O)Nc2cccc3c2C2CC4(CCN2C3=O)SCCS4)nc2ccccc12` (configuration not stated), the Ratio IC50 in [1] was greater than 2.5. Further, the IC50 in [2] came to 4000 nM.

`Cc1cccnc1NC(=O)Nc1cccc2c1C1CC3(CCN1C2=O)OCCO3` (configuration not stated): the Ratio IC50 in test [1] came out at 5. The IC50 in [2] amounted to 610 nM.

`Cn1ccc(NC(=O)Nc2cccc3c2C2CC4(CCN2C3=O)SCCS4)n1` (configuration not stated): in test [1], the Ratio IC50 is greater than 5.2. The half-maximal inhibitory concentration (IC50) in test [2] came out at 1900 nM.

For the molecule `Cc1cnc(NC(=O)Nc2cccc3c2C2CC4(CCN2C3=O)SCCS4)cn1` (configuration not stated), the 50% inhibitory concentration (IC50) in test [4] came to 200 nM; in test [5], 400 nM; in test [6], 800 nM; in [7], 300 nM; in test [8], 400 nM; in test [2], 55 nM. The molecule also came in with an IC50 in test [9] of 500 nM.

Take `O=C(Nc1ccc(Br)cn1)Nc1cccc2c1C1CC3(CCN1C2=O)SCCS3` (configuration not stated): in test [1], the Ratio IC50 amounted to 107. For the same molecule, the IC50 in test [2] worked out at 68 nM.

Turning to `CO[C@@H]1CCN2C(=O)c3cccc(NC(=O)Nc4ccccn4)c3[C@@H]2C1` (relative stereo), the Ratio IC50 in test [1] is 6.8. The results for the IC50 in [3], in [15] and in test [2] were 550 nM, greater than 10000 nM and 81 nM, respectively.

As for `CO[C@@H]1CCN2C(=O)c3cccc(NC(=O)Nc4cnccn4)c3[C@@H]2C1` (relative stereo), in [1], the Ratio IC50 was 2.4. In addition, the IC50 in test [3] was 480 nM; in [15], greater than 10000 nM; in [2], 200 nM.

With `O=C(Nc1cnccn1)Nc1cccc2c1[C@@H]1C[C@H](O)CCN1C2=O` (relative stereo), the IC50 result in test [10] is “Not Active”; in [11] it was “Not Active”; in test [3], 84 nM; in [15], greater than 10000 nM; in test [12] it was “Not Active”; in test [2] it was 32 nM. In addition, the IC50 entry in [13] and in test [14] was “Not Active” each time.

Regarding `CO[C@@H]1CCN2C(=O)c3cccc(NC(=O)Nc4cccc(C)n4)c3[C@@H]2C1` (relative stereo), the Ratio IC50 in test [1] came out at 13.4. For the same molecule, the IC50 in [3] is 4300 nM; in test [15], greater than 10000 nM; in [2] it was 320 nM.

As to `COc1cc(NC(=O)Nc2cccc3c2[C@@H]2C[C@H](OC)CCN2C3=O)nc2ccccc12` (relative stereo), in test [1], the Ratio IC50 is 47.5. Also, the IC50 was 8500 nM in test [3], greater than 10000 nM in [15] and 180 nM in test [2].

With `COc1cc(NC(=O)Nc2cccc3c2[C@@H]2C[C@H](O)CCN2C3=O)nc2ccccc12` (relative stereo), the IC50 entry in test [10] is “Not Active”; in test [11], “Not Active”; in test [3] it was 4900 nM; in [15], greater than 10000 nM; in [12] it was “Not Active”; in test [2], 35 nM. The IC50 result in test [13] and in test [14] was “Not Active” throughout.

Regarding `CO[C@@H]1CCN2C(=O)c3cccc(NC(=O)Nc4ncccc4C)c3[C@@H]2C1` (relative stereo), the IC50 in test [3] was 1100 nM; in test [15] it was greater than 10000 nM.

For `Cc1cccnc1NC(=O)Nc1cccc2c1[C@@H]1C[C@H](O)CCN1C2=O` (relative stereo), in test [3], the half-inhibitory concentration (IC50) came to 630 nM.

As to `CO[C@@H]1CCN2C(=O)c3cccc(NC(=O)Nc4ccn(C)n4)c3[C@@H]2C1` (relative stereo), the IC50 in test [3] was 2300 nM; in test [15] it was greater than 10000 nM.

`CO[C@@H]1CCN2C(=O)c3cccc(NC(=O)Nc4cnc(C)cn4)c3[C@@H]2C1` (relative stereo): in test [1], the Ratio IC50 stood at 10. Moreover, the concentration for half-maximal inhibition (IC50) in test [3] is 320 nM; in [15], greater than 10000 nM; in test [2], 140 nM.

Take `CO[C@@H]1CCN2C(=O)c3cccc(NC(=O)Nc4cc(C)ccn4)c3[C@@H]2C1` (relative stereo): the Ratio IC50 in test [1] stood at 10. Also, the IC50 in [3] is 320 nM; in test [4], 30 nM; in test [5], 300 nM; in [6], 400 nM; in test [15], greater than 10000 nM; in test [7] it was 100 nM. Further, the figures for the IC50 in test [8], in [2] and in [9] were 400 nM, 32 nM and 500 nM, respectively.
